Test results: patent US9573957B2 (Boehringer Ingelheim International GmbH, priority 2013, dated 2017)

Assays:
[1] = test system: synthesis of LTB4 in human whole blood; test: LTB4 production inhibition assay in human whole blood (HWB); format: cell-based; details: heparinized human whole blood, 15 min at 37° C., Calcimycin 20 μM 30 min, plasma LTB4 by HTRF
In short: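 LTB4 in plasma read by HTRF immunoassay after centrifugation. Before that, compound sat with heparinized human whole blood 15 min at 37° C, followed by 30 min at 37° C with 20 μM (final) calcimycin.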

human LTA4 hydrolase = human LTA4 hydrolase (Homo sapiens (Human), UniProt P09960); test: LTA4H Enzyme assay (peptidase, Arg-AMC cleavage); format: biochemical; details: LTA4H Enzyme 1 nM, Arg-AMC substrate 50 μM, room temperature 1 h, fluorescence
In short: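 Aminomethylcoumarin release measured fluorimetrically (380/460 nm) after 1 h at room temperature. Reaction: 1 nM final enzyme, 50 μM final Arg-AMC and compound in Tris-HCl pH 7.5 with 100 mM KCl and 0.5% BSA.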

human LTA4 hydrolase, sequence (P09960 whole entry): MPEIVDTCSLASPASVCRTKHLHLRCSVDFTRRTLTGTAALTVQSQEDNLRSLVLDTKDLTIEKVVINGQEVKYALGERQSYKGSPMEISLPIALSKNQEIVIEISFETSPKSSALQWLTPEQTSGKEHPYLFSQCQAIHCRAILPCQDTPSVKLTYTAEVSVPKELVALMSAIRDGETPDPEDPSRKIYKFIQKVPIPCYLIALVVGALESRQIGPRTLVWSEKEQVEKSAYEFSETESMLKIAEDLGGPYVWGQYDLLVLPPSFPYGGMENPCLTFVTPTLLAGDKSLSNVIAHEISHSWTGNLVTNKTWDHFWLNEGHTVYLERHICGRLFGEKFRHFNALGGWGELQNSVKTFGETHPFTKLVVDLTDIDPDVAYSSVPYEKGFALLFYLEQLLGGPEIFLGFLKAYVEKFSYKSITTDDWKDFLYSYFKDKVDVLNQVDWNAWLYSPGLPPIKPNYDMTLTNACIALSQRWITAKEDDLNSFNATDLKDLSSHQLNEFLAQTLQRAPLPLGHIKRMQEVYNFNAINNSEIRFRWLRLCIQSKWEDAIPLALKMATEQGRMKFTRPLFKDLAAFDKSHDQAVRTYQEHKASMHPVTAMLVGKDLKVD

Structure (SMILES)	IC50 [1]	IC50 (human LTA4 hydrolase)
CC(C)(CO)C(=O)N1CCN(Cc2ccc3cc(Oc4ccc(-c5ccn[nH]5)cn4)ccc3n2)CC1 [Example 135, 3-Hydroxy-2,2-dimethyl-1-(4-{6-[5-(2H-pyrazol-3-yl)-pyridin-2-yloxy]-quinolin-2-ylmethyl}-piperazin-1-yl)-propan-1-one]	610 nM	5.4 nM
O=C(C1C2COCC21)N1CCN(Cc2ccc3cc(Oc4ccc(-c5ccn[nH]5)cn4)ccc3n2)CC1 (stereo not drawn) [Example 136, (3-Oxa-bicyclo[3.1.0]hex-6-yl)-(4-{6-[5-(2H-pyrazol-3-yl)-pyridin-2-yloxy]-quinolin-2-ylmethyl}-piperazin-1-yl)-methanone]	770 nM	6 nM
CC(C)[C@H](O)C(=O)N1CCN(Cc2ccc3cc(Oc4ccc(-c5ccn[nH]5)cn4)ccc3n2)CC1 [Example 137, (S)-2-Hydroxy-3-methyl-1-(4-{6-[5-(2H-pyrazol-3-yl)-pyridin-2-yloxy]-quinolin-2-ylmethyl}-piperazin-1-yl)-butan-1-one]	440 nM	2.5 nM
O=C(C1CC(O)C1)N1CCN(Cc2ccc3cc(Oc4ccc(-c5ccn[nH]5)cn4)ccc3n2)CC1 (stereo not drawn) [Example 139, (3-Hydroxy-cyclobutyl)-(4-{6-[5-(2H-pyrazol-3-yl)-pyridin-2-yloxy]-quinolin-2-ylmethyl}-piperazin-1-yl)-methanone]	500 nM	3 nM
COCCCC(=O)N1CCN(Cc2ccc3cc(Oc4ccc(-c5ccn[nH]5)cn4)ccc3n2)CC1 [Example 142, 4-Methoxy-1-(4-{6-[5-(2H-pyrazol-3-yl)-pyridin-2-yloxy]-quinolin-2-ylmethyl}-piperazin-1-yl)-butan-1-one]	930 nM	2.5 nM
O=C(N1CCN(Cc2ccc3cc(Oc4ccc(-c5ccn[nH]5)cn4)ccc3n2)CC1)C1(O)CCC1 [Example 143, (1-Hydroxy-cyclobutyl)-(4-{6-[5-(2H-pyrazol-3-yl)-pyridin-2-yloxy]-quinolin-2-ylmethyl}-piperazin-1-yl)-methanone]	580 nM	1.8 nM
CCCOCC(=O)N1CCN(Cc2ccc3cc(Oc4ccc(-c5ccn[nH]5)cn4)ccc3n2)CC1 [Example 144, 2-Propoxy-1-(4-{6-[5-(2H-pyrazol-3-yl)-pyridin-2-yloxy]-quinolin-2-ylmethyl}-piperazin-1-yl)-ethanone]	660 nM	2.3 nM
CC(C)(C#N)C(=O)N1CCN(Cc2ccc3cc(Oc4ccc(-c5ccn[nH]5)cn4)ccc3n2)CC1 [Example 145, 2,2-Dimethyl-3-oxo-3-(4-{6-[5-(2H-pyrazol-3-yl)-pyridin-2-yloxy]-quinolin-2-ylmethyl}-piperazin-1-yl)-propionitrile]	510 nM	1.3 nM
N#CC1(C(=O)N2CCN(Cc3ccc4cc(Oc5ccc(-c6ccn[nH]6)cn5)ccc4n3)CC2)CCC1 [Example 146, 1-(4-{6-[5-(2H-Pyrazol-3-yl)-pyridin-2-yloxy]-quinolin-2-ylmethyl}-piperazine-1-carbonyl)-cyclobutanecarbonitrile]	750 nM	3.4 nM
N#CC1(C(=O)N2CCN(Cc3ccc4cc(Oc5ccc(-c6ccn[nH]6)cn5)ccc4n3)CC2)CCOCC1 [Example 148, 4-(4-{6-[5-(2H-Pyrazol-3-yl)-pyridin-2-yloxy]-quinolin-2-ylmethyl}-piperazine-1-carbonyl)-tetrahydro-pyran-4-carbonitrile]	1100 nM	7.9 nM
CC1(O)CC(C(=O)N2CCN(Cc3ccc4cc(Oc5ccc(-c6ccn[nH]6)cn5)ccc4n3)CC2)C1 (stereo not drawn) [Example 150, (3-Hydroxy-3-methyl-cyclobutyl)-(4-{6-[5-(2H-pyrazol-3-yl)-pyridin-2-yloxy]-quinolin-2-ylmethyl}-piperazin-1-yl)-methanone]	490 nM	3.4 nM
O=C([C@@H]1CCC[C@@H]1O)N1CCN(Cc2ccc3cc(Oc4ccc(-c5ccn[nH]5)cn4)ccc3n2)CC1 [Example 151, ((1R,2S)-2-Hydroxy-cyclopentyl)-(4-{6-[5-(2H-pyrazol-3-yl)-pyridin-2-yloxy]-quinolin-2-ylmethyl}-piperazin-1-yl)-methanone]	800 nM	6.1 nM

Now those with a lower IC50 [1], led by results:

IC50 [1]	IC50 (human LTA4 hydrolase)	Structure (SMILES)
320 nM	2.9 nM	O=C([C@H]1CCCO1)N1CCN(Cc2ccc3cc(Oc4ccc(-c5ccn[nH]5)cn4)ccc3n2)CC1 [Example 133, (4-{6-[5-(2H-Pyrazol-3-yl)-pyridin-2-yloxy]-quinolin-2-ylmethyl}-piperazin-1-yl)-(R)-tetrahydro-furan-2-yl-methanone]
410 nM	3.1 nM	CC[C@@H](O)C(=O)N1CCN(Cc2ccc3cc(Oc4ccc(-c5ccn[nH]5)cn4)ccc3n2)CC1 [Example 134, (R)-2-Hydroxy-1-(4-{6-[5-(2H-pyrazol-3-yl)-pyridin-2-yloxy]-quinolin-2-ylmethyl}-piperazin-1-yl)-butan-1-one]
340 nM	1.7 nM	O=C(N1CCN(Cc2ccc3cc(Oc4ccc(-c5ccn[nH]5)cn4)ccc3n2)CC1)C1(CO)CC1 [Example 138, (1-Hydroxymethyl-cyclopropyl)-(4-{6-[5-(2H-pyrazol-3-yl)-pyridin-2-yloxy]-quinolin-2-ylmethyl}-piperazin-1-yl)-methanone]
150 nM	0.57 nM	CO[C@H](C)C(=O)N1CCN(Cc2ccc3cc(Oc4ccc(-c5ccn[nH]5)cn4)ccc3n2)CC1 [Example 140, (R)-2-Methoxy-1-(4-{6-[5-(2H-pyrazol-3-yl)-pyridin-2-yloxy]-quinolin-2-ylmethyl}-piperazin-1-yl)-propan-1-one]
400 nM	2.7 nM	O=C([C@@H]1CCOC1)N1CCN(Cc2ccc3cc(Oc4ccc(-c5ccn[nH]5)cn4)ccc3n2)CC1 [Example 141, (4-{6-[5-(2H-Pyrazol-3-yl)-pyridin-2-yloxy]-quinolin-2-ylmethyl}-piperazin-1-yl)-(R)-tetrahydro-furan-3-yl-methanone]
200 nM	0.47 nM	CC(C#N)C(=O)N1CCN(Cc2ccc3cc(Oc4ccc(-c5ccn[nH]5)cn4)ccc3n2)CC1 (stereo not drawn) [Example 149, 2-Methyl-3-oxo-3-(4-{6-[5-(2H-pyrazol-3-yl)-pyridin-2-yloxy]-quinolin-2-ylmethyl}-piperazin-1-yl)-propionitrile]
